Results from patent publication US20150080329A1, “PHARMACEUTICAL COMPOSITIONS COMPRISING DHA, EPA, AND/OR GLA AND AN ANTIBIOTIC AGENT AND METHODS OF USE THEREOF” (priority 2013, published 2015).
Values after ≈ are worked out from the molar mass of the structure shown. Where two headings read alike, the source gives them in different places.

Experiments:
Format in all cases: cell-based
P. acnes NCTC737 = assay: MIC and MBC determination by broth micro-dilution against P. acnes
S. aureus ATCC43300 = assay: MIC and MBC determination by broth micro-dilution against S. aureus
S. aureus = assay: Checkerboard assay of interactions between LC-PUFAs and topical antimicrobial agents; settings: n = 2, mean ± one standard deviation
Method: Checkerboard assays were performed according to the standard protocol published by the American Society for Microbiology to investigate the existence of synergistic antimicrobial interactions between the three LC-PUFAs and two anti-acne agents (BPO and SA) against P. acnes. Further checkerboards were performed against S. aureus for BPO, SA and four antibiotics used to treat topical staphylococcal infections (FUS, MUP, NEO and POL) with these agents being assessed separately against each of the three LC-PUFAs. Doubling dilutions of each compound were prepared in TSA or SBB and dispensed to 96-well plates in the standard checkerboard pattern. […] Control wells were dispensed with medium supplemented with the greatest concentration of solvent used in any well, while negative control wells contained just medium. Inoculums were prepared to 1×10^7 CFU/mL as above. Each well (except for negative controls) was inoculated with 5 μL of bacterial suspension. Plates were incubated as for MIC determinations above and then the presence of bacterial growth was determined for each well according to the clarity of the medium and/or the presence of suspended colonies. The FIC for each well was determined for each interaction and the lowest FICs from duplicate checkerboard assays were used to calculate a mean value that permitted interpretation of the nature of interaction between each combination of compounds Using the pre-determined MIC values, checkerboard assays were performed to detect the interactions between the LC-PUFAs and the clinical antimicrobial drugs against the growth of S. aureus. The lowest fractional inhibitory concentration (FIC) on duplicate checkerboards was used to calculate a mean FIC for each interaction, and a mean FIC ≦0.5 was defined as synergy while a mean FIC ≧4 was defined as antagonism. Against S. aureus, none of the combinations gave a mean FIC ≧4, indicating no antagonism of efficacy between the LC-PUFAs and the clinical antimicrobial agents (Table 4). […] (Table 4)

[1] = tested on: ten diverse isolates of S. aureus; assay: MIC50 and MBC50 against ten diverse isolates of S. aureus; settings: Staphylococcus aureus; for MIC50: concentration required to inhibit 50% of ten S. aureus isolates; for MBC: concentration required to kill 50% of ten S. aureus isolates
[2] = Cutibacterium acnes, P. acnes NCTC737, kills ≧99.9% of initial inoculum, LC-PUFAs (Table 1), read-out: MBC
[3] = Cutibacterium acnes, P. acnes NCTC737, supplemented brucella broth, 48 h, LC-PUFAs (Table 1), read-out: MIC
[4] = Staphylococcus aureus, S. aureus ATCC43300, Mueller-Hinton broth, 18-20 h, LC-PUFAs (Table 1), read-out: MIC
[5] = Staphylococcus aureus, S. aureus ATCC43300, kills ≧99.9% of initial inoculum, LC-PUFAs (Table 1), read-out: MBC
[6] = S. aureus, clinical antimicrobial agents (Table 3)
[7] = P. acnes, clinical antimicrobial agents (Table 3)

Compound	ΣFIC (S. aureus; in combination with DHA)	ΣFIC (S. aureus; in combination with EPA)	ΣFIC (S. aureus; in combination with GLA)	MBC (P. acnes NCTC737; [2]) [µg/mL]	MIC (P. acnes NCTC737; [3]) [µg/mL]	MIC (S. aureus ATCC43300; [4]) [µg/mL]	MBC (S. aureus ATCC43300; [5]) [µg/mL]	MIC50 [1] [µg/mL]	MBC [1] [µg/mL]	MBC (S. aureus ATCC43300; [6]) [µg/mL]	MIC (S. aureus ATCC43300; [6]) [µg/mL]	also measured
O=C(OOC(=O)c1ccccc1)c1ccccc1 [BPO, benzoyl peroxide]	2.00 ± 0.00	1.00 ± 0.00	0.56 ± 0.09	–	–	–	–	–	–	–	–	MBC (P. acnes NCTC737; Cutibacterium acnes, NCTC737, P. acnes, clinical antimicrobial agents (Table 3), read-out: MBC): > 4100 µg/mL; MIC (P. acnes NCTC737; Cutibacterium acnes, NCTC737, P. acnes, clinical antimicrobial agents (Table 3), read-out: MIC): 64 µg/mL (≈ 264 µM); MBC (S. aureus ATCC43300; Staphylococcus aureus, ATCC43300, S. aureus, clinical antimicrobial agents (Table 3), read-out: MBC): 512 µg/mL (≈ 2110 µM); MIC (S. aureus ATCC43300; Staphylococcus aureus, ATCC43300, S. aureus, clinical antimicrobial agents (Table 3), read-out: MIC): 512 µg/mL (≈ 2110 µM)
CC/C=C\C/C=C\C/C=C\C/C=C\C/C=C\C/C=C\CCC(=O)O [DHA, (4Z,7Z,10Z,13Z,16Z,19Z)-docosa-4,7,10,13,16,19-hexaenoic acid]	–	–	–	> 4100	32 (≈ 97.4 µM)	128 (≈ 390 µM)	128 (≈ 390 µM)	128 (≈ 390 µM)	256 (≈ 779 µM)	–	–	–
CC/C=C\C/C=C\C/C=C\C/C=C\C/C=C\CCCC(=O)O [EPA, all-cis-5,8,11,14,17-eicosapentaenoic acid]	–	–	–	> 4100	128 (≈ 423 µM)	128 (≈ 423 µM)	256 (≈ 846 µM)	256 (≈ 846 µM)	256 (≈ 846 µM)	–	–	–
CC(=O)O[C@H]1C[C@@]2(C)[C@@H](C[C@@H](O)[C@H]3[C@@]4(C)CC[C@@H](O)[C@@H](C)[C@@H]4CC[C@@]32C)/C1=C(\CCC=C(C)C)C(=O)O [FUS]	2.00 ± 0.00	1.13 ± 0.18	1.50 ± 0.71	–	–	–	–	–	–	8 (≈ 15.5 µM)	0.25 (≈ 0.484 µM)	–
CCCCC/C=C\C/C=C\C/C=C\CCCCC(=O)O [GLA, all-cis-6,9,12-octadecatrienoic acid]	–	–	–	> 4100	64 (≈ 230 µM)	512 (≈ 1840 µM)	512 (≈ 1840 µM)	512 (≈ 1840 µM)	512 (≈ 1840 µM)	–	–	–
C/C(=C\C(=O)OCCCCCCCCC(=O)O)C[C@@H]1OC[C@H](C[C@@H]2O[C@H]2[C@@H](C)[C@H](C)O)[C@@H](O)[C@H]1O [MUP]	1.50 ± 0.00	2.00 ± 0.00	2.25 ± 0.35	–	–	–	–	–	–	16 (≈ 32 µM)	0.25 (≈ 0.499 µM)	–
NC[C@@H]1O[C@H](O[C@H]2[C@@H](O)[C@H](O[C@@H]3[C@@H](O)[C@H](N)C[C@H](N)[C@H]3O[C@H]3O[C@H](CN)[C@@H](O)[C@H](O)[C@H]3N)O[C@@H]2CO)[C@H](N)[C@@H](O)[C@@H]1O [NEO, neomycin]	0.56 ± 0.09	0.38 ± 0.00	0.19 ± 0.00	–	–	–	–	–	–	128 (≈ 208 µM)	32 (≈ 52.1 µM)	–
O=C(O)c1ccccc1O [SA]	1.25 ± 0.35	0.88 ± 0.18	0.88 ± 0.18	–	–	–	–	–	–	2048 (≈ 14800 µM)	1024 (≈ 7410 µM)	MBC (P. acnes NCTC737; [7]): >4096 µg/mL; MIC (P. acnes NCTC737; [7]): 64 µg/mL (≈ 463 µM)
polymyxin B	2.00 ± 0.00	2.00 ± 0.00	1.06 ± 0.62	–	–	–	–	–	–	128	16	–
